This note sets out measurements from ChEMBL document CHEMBL4507291 (2021).

Assay [1] addresses T1, Mitogen-activated protein kinase 13 (Homo sapiens) (UniProt O15264).
T1 sequence (whole entry): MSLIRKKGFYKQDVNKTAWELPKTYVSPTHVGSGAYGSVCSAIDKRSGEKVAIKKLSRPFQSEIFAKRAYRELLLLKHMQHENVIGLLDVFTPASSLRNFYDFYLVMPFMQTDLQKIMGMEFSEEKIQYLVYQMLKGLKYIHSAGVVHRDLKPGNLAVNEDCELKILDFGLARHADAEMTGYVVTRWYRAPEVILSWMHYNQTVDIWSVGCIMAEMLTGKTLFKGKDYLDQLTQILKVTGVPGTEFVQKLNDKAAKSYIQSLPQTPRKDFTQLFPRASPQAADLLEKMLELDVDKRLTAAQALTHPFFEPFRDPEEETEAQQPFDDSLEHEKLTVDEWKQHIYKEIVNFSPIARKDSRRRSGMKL

The target of assay [2] is Mitogen-activated protein kinase kinase kinase 20 (Homo sapiens) (UniProt Q9NYL2).
The target of assay [3] is Eukaryotic translation initiation factor 2-alpha kinase 1 (Homo sapiens) (UniProt Q9BQI3).
Sequence of Eukaryotic translation initiation factor 2-alpha kinase 1 (Homo sapiens) (Q9BQI3 whole entry): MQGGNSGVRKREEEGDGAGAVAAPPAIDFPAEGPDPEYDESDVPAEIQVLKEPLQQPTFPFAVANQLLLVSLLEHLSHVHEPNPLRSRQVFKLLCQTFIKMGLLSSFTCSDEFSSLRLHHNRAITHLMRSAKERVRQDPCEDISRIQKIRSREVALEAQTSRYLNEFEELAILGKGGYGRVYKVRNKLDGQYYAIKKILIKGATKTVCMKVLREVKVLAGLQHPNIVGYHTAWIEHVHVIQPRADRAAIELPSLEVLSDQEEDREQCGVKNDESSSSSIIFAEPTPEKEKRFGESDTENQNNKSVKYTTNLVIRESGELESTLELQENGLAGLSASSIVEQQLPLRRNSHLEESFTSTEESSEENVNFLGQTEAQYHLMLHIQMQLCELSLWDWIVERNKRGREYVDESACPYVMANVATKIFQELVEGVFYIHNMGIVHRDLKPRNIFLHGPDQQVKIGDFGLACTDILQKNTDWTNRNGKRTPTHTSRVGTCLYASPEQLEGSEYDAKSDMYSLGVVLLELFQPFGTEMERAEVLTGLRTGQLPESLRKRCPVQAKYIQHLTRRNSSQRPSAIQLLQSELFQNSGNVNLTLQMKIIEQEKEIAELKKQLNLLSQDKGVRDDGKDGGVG
Assay [4] addresses Receptor-interacting serine/threonine-protein kinase 2 (Homo sapiens) (UniProt O43353).
Assay [5] concerns the target Serine/threonine-protein kinase PAK 6 (Homo sapiens) (UniProt Q9NQU5).
The target in assay [6] is T2, TGF-beta receptor type-1 (Homo sapiens) (UniProt P36897).
T2 sequence (whole entry): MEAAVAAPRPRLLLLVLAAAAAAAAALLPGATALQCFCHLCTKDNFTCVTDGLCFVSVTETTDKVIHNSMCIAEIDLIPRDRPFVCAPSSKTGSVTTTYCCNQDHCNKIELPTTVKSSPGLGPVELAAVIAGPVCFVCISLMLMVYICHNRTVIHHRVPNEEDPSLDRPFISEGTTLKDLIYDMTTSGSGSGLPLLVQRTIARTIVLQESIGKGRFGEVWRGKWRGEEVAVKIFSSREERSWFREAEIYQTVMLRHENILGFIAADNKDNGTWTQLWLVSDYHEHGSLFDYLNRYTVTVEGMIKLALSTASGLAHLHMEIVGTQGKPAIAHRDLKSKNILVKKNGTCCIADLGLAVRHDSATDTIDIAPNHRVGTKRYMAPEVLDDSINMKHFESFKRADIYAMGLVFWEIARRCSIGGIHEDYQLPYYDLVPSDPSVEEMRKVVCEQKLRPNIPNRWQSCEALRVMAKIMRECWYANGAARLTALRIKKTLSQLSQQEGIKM

The target of assay [7] is Myosin light chain kinase family member 4 (Homo sapiens) (UniProt Q86YV6).
Sequence of Myosin light chain kinase family member 4 (Homo sapiens) (Q86YV6 whole entry): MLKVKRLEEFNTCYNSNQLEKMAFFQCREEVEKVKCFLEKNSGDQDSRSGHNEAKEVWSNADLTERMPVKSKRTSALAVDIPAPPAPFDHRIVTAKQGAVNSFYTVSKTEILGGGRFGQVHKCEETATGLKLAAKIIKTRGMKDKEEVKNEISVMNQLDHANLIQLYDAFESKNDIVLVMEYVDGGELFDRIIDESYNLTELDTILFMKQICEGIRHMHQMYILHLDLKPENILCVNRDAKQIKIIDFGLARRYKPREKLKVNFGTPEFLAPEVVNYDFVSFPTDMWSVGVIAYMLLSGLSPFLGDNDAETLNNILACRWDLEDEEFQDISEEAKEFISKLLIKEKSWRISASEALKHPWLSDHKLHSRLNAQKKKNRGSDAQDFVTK
Assay [8] has as its target Mitogen-activated protein kinase kinase kinase 13 (Homo sapiens) (UniProt O43283).
The target in assay [9] is Cyclin-G-associated kinase (Homo sapiens) (UniProt O14976).
Sequence of Cyclin-G-associated kinase (Homo sapiens) (O14976 whole entry): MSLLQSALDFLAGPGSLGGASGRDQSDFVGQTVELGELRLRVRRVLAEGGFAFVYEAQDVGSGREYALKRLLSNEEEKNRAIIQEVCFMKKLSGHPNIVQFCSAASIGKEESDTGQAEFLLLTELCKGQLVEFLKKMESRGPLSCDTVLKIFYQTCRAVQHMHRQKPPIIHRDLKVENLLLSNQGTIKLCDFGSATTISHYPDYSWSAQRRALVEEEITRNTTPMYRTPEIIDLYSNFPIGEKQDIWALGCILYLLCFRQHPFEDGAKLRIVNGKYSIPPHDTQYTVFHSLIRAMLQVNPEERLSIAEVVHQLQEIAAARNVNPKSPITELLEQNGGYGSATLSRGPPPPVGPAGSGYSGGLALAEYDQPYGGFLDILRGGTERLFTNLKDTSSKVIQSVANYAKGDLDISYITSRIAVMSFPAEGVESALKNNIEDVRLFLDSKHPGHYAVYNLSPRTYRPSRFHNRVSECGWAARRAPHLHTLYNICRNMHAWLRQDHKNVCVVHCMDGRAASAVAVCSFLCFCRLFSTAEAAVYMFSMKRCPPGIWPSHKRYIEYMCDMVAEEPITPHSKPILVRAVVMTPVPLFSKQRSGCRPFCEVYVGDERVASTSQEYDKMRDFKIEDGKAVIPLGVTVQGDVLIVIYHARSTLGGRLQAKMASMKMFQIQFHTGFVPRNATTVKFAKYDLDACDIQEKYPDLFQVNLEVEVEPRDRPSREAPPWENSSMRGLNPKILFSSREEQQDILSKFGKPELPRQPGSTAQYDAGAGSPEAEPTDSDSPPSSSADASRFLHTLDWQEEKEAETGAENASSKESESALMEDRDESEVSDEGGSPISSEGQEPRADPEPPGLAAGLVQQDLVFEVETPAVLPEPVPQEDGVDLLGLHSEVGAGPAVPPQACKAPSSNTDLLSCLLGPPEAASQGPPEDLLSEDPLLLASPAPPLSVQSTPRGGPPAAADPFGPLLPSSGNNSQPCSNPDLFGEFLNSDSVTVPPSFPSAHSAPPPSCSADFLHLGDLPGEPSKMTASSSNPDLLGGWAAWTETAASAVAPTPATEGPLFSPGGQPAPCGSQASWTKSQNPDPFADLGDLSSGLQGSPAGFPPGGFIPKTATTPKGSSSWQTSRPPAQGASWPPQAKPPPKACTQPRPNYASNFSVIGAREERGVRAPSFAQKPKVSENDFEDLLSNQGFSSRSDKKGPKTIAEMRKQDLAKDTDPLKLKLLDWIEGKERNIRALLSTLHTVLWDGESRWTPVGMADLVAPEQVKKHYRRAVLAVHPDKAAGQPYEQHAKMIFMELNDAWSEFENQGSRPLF
The target in assay [10] is Calcium/calmodulin-dependent protein kinase type II subunit delta (Homo sapiens) (UniProt Q13557).
Sequence of Calcium/calmodulin-dependent protein kinase type II subunit delta (Homo sapiens) (Q13557 whole entry): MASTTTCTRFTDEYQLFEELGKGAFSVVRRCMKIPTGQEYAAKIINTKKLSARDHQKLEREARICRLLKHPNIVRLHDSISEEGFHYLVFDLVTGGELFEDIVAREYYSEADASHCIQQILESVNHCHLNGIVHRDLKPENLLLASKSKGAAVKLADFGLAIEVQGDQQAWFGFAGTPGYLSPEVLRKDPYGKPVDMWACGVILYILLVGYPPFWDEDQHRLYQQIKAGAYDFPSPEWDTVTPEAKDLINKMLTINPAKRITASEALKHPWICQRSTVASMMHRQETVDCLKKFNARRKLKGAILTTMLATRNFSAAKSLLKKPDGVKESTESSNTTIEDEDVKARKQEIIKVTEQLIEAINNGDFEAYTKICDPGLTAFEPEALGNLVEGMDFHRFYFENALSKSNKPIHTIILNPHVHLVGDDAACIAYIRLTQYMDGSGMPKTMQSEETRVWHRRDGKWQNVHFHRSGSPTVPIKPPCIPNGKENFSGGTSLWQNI
The target of assay [11] is T3, Serine/threonine-protein kinase TAO2 (Homo sapiens) (UniProt Q9UL54).
T3 sequence (whole entry): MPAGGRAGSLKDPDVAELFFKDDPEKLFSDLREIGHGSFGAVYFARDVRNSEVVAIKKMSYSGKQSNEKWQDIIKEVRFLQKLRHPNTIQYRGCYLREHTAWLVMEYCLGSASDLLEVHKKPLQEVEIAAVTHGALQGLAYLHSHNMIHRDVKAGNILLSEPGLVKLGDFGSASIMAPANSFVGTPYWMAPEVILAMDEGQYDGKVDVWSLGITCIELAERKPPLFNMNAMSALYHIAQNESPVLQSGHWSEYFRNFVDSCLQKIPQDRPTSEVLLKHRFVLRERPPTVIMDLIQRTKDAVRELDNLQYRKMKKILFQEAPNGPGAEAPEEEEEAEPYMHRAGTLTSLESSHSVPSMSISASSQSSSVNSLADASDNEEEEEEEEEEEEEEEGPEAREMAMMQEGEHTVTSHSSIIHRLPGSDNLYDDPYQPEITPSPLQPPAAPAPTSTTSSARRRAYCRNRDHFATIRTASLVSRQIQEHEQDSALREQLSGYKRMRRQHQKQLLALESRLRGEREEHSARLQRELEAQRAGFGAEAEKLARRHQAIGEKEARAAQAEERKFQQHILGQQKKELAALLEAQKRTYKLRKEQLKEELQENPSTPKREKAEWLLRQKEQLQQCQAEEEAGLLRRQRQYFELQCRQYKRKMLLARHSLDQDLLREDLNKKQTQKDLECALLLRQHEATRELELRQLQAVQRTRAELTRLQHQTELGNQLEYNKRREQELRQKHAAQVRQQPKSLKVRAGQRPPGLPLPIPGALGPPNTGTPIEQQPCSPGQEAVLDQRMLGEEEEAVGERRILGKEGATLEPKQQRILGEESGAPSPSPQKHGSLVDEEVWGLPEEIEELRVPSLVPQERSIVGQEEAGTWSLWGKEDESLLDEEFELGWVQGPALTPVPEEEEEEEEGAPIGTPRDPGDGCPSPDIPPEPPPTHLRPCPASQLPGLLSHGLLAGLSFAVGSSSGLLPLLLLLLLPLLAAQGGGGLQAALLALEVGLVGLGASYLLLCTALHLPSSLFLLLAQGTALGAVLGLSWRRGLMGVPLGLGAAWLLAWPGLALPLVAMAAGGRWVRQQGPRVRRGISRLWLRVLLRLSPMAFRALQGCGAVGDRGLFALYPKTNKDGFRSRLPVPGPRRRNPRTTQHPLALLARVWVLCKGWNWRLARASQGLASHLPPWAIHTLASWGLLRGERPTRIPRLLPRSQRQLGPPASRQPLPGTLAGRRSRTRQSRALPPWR

Setting [12] is: Compound concentration 1000.0 nM.
Where [13] appears, read: Compound concentration 100.0 nM.

Molecules are shown by their SMILES.

Sequence of Receptor-interacting serine/threonine-protein kinase 2 (Homo sapiens) (O43353 whole entry): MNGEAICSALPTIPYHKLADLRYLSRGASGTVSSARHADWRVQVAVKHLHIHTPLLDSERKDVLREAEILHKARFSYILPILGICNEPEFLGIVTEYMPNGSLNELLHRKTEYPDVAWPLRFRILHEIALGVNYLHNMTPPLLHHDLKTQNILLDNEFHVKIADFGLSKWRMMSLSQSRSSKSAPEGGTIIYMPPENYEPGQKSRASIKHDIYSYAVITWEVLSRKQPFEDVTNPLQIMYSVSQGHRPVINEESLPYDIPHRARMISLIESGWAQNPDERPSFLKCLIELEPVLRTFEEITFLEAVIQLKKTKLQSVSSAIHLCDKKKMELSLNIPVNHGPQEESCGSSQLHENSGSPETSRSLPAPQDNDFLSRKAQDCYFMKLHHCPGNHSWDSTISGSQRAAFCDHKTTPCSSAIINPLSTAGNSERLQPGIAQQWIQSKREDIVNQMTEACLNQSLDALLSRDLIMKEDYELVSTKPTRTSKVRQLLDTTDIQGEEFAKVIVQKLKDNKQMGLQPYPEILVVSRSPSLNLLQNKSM
Sequence of Serine/threonine-protein kinase PAK 6 (Homo sapiens) (Q9NQU5 whole entry, looked up): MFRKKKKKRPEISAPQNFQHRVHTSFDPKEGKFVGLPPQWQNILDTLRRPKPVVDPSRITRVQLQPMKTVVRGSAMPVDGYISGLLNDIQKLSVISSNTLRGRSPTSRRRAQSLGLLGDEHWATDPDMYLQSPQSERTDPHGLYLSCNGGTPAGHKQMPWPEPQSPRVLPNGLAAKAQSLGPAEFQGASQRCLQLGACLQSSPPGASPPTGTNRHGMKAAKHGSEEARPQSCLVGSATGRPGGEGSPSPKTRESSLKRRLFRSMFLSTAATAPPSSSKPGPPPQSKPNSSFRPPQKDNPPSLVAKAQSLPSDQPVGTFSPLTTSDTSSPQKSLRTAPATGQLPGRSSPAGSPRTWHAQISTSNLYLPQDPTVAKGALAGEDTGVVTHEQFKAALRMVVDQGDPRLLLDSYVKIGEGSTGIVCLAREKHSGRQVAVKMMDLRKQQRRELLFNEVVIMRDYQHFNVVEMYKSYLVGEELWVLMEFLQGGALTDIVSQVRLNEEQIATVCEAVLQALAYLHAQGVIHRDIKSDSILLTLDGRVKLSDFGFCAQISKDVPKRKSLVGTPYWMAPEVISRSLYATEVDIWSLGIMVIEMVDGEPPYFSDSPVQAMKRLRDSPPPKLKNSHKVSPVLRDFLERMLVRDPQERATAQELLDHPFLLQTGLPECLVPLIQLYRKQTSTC
Sequence of Mitogen-activated protein kinase kinase kinase 13 (Homo sapiens) (O43283 whole entry): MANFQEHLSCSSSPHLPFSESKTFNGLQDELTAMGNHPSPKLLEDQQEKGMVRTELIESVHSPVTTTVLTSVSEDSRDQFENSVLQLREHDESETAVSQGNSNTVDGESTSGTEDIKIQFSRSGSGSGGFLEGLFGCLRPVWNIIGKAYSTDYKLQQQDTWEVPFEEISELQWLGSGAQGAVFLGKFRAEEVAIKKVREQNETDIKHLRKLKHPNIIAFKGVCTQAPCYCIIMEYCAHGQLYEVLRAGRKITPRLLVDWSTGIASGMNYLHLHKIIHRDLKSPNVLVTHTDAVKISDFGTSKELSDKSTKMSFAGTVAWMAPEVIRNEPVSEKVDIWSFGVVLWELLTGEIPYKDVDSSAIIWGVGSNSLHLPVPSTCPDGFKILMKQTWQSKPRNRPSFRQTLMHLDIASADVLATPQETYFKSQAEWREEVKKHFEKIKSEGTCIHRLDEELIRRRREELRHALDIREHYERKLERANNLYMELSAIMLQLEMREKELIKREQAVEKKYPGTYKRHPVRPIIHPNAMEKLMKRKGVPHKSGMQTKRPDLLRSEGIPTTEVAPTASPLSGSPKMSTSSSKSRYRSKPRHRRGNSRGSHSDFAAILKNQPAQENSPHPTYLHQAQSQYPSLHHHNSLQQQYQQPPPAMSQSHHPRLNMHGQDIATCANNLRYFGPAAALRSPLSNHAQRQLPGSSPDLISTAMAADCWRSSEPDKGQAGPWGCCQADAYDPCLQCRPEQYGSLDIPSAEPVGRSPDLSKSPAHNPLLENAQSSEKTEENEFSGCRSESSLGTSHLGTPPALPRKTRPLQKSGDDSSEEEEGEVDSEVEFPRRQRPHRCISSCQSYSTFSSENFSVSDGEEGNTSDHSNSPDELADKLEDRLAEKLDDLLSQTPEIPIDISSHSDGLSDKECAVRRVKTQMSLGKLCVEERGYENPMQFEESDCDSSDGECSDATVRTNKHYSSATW

On to `C[C@@H]1CN(c2cc(-c3nn(C)c4ccc(OC5(C)CC5)cc34)ncn2)C[C@H](C)O1` [MLi-2-NC], for which the residual activity is 100% in assay [1] (setting [12]); 100% in assay [2] (setting [12]); 60% in [3] (setting [12]); 100% in [4] (setting [12]); 100% in [5] (setting [12]); 89% in assay [6] (setting [12]). For the same molecule, the residual activity was 100% in [7] (setting [12]); 91% in assay [8] (setting [12]); 86% in [9] (setting [12]); 88% in assay [10] (setting [12]); 80% in [11] (setting [12]).

As to `C[C@@H]1CN(c2cc(-c3n[nH]c4ccc(OC5(C)CC5)cc34)ncn2)C[C@H](C)O1` [MLi-2], the residual activity was 96% in assay [1] (setting [13]); 92% in assay [2] (setting [13]); 100% in [3] (setting [13]); 100% in assay [4] (setting [13]); 100% in [5] (setting [13]); 100% in assay [6] (setting [13]). The residual activity was 100% in assay [7] (setting [13]); 0% in assay [8] (setting [13]); 86% in [9] (setting [13]); 100% in assay [10] (setting [13]); 73% in [11] (setting [13]).
